The values below come from patent US20250073234A1, “COMBINATION THERAPIES INCLUDING PARP1 INHIBITORS” (Cornell University, priority 2022, published 2025).

Test [1] deals with WPMY-1 cells. Briefly: ATAC-seq chromatin accessibility in WPMY-1 cells. Format: cell-based, human. The following applies: lactate-treated WPMY-1 cells, 48 h. The protocol:
The cell pellet was resuspended in 50 μl lysis buffer and then spun down 500×g for 10 minutes at 4° C. The nuclei pellet was resuspended into 50 μl transposition reaction mixture containing Tn5 transposase from Nextera DNA Library Prep Kit (Illumina) and incubated at 37° C. for 30 minutes. Then the transposase-associated DNA was purified using MinElute PCR purification kit (QIAGEN). To amplify the library, the DNA was first amplified for 5 cycles using indexing primer from Nextera kit and NEBNext High-Fidelity 2×PCR master mix. To reduce the PCR amplification bias, 5 μl of amplified DNA after the first 5 cycles was used to do qPCR of 20 cycles to decide the number of cycles for the second round of PCR. Usually, the maximum cycle of the second round of PCR is 5 cycles. Then the total amplified DNA was size selected to fragments less than 800 bp using SPRI beads. Quantification of the ATAC-seq library was done with QuBit. The size of the pooled library was examined by TapeStation. Barcoded ATAC-seq libraries were pooled and paired end sequenced (sX75) on the Illumina NextSeq 500 using the High output V2.5 kit (Illumina Inc., San Diego, CA).
Peaks were annotated with ChipSeeker R package. […].

Test [2] relates to WPMY-1 cells. Briefly: Intracellular NAD levels in WPMY-1 cells. It counts as cell-based, human. The following applies: stromal fibroblasts treated with lactate vs untreated. The protocol:
Quantification was carried out using the NAD/NADH quantification colorimetric kit (Cat. No. MAK037, Sigma) according to the manufacturer's protocol. At least three independent measurements were carried out.

The next test deals with AP-1. In words: AP-1-driven luciferase reporter in WPMY-1 cells. It counts as cell-based, human. Particulars: lactate 48 h.
The test system of another test is PARP-1. Briefly: Poly(ADP-ribosyl)ation in WPMY-1 cells (immunoblot, immunoprecipitation). Format: cell-based, human. The protocol: Cells for protein analysis were lysed in RIPA buffer (20 mM Tris-HCl, […], 2 mM EDTA, 1% Triton-X, 10% glycerol, 0.1% SDS, and 0.5% sodium deoxycholate) with phosphatase and protease inhibitors. For immunoprecipitations, cells were lysed in IP lysis buffer (100 mM NaCl, 25 mM Tris, 1% Triton-X, 10% glycerol, with phosphatase and protease inhibitors) and immunoprecipitated with 25 μl of 50% slurry of protein […] beads (Bioworld). Immunoprecipitates were washed three times with lysis buffer, once with high salt (500 mM NaCl), and once more with lysis buffer. Protein concentration in lysates was determined by using Protein Assay Kit (Bio-Rad). Cell extracts and immunoprecipitated proteins were denatured, subjected to SDS-PAGE, transferred to PVDF membranes (GE Healthcare). After blocking with 5% nonfat dry milk in Tris-buffered saline and 0.1% Tween (TBS-T), the membranes were incubated with the specific antibodies (as listed in Key Resources Table) overnight at 4° C. After 2 hours incubation with the appropriate horseradish peroxidase-conjugated antibodies, the immune complexes were detected by chemiluminescence (Thermo Scientific) or Near-infrared fluorescence (LI-COR).

Test [3] concerns PC3 cells. Briefly: Click-iT EdU proliferation of PC3 cells treated with CM from WPMY-1 cells. It counts as cell-based, human. The following applies: Olaparib 10 μM + PEGPH20 2.5 μg/ml or CM incubation with Galunisertib 10 μM. The protocol:
WPMY-1 cells were cultured in DMEN containing 10% FBS (basal conditions) or 10% charcoal stripped FBS (ADT conditions), then the cells were treated with vehicle (DMSO), Olaparib 10 μM, Olaparib 10 μM+PEGPH20 2.5 μg/ml for 96 hours, refreshing media and stimuli at 48 hours, conditioned media (CM) was generated by collecting supernatant on day 4. PC3 cells were seeded in a black-walled well (Thermo Fisher) and serum starved overnight. CM from WPMY-1 cells was added to PC3 for 24 h. PC3 were exposed to EdU incorporation for the last 2 hours. Proliferating cells were detected using Click-iT EdU Alexa fluor 488 (Thermo Fisher) following the manufacturer's instructions. Pictures were taken using EVOS M5000 Imaging System and EdU positive were measured using Fiji (Schindelin et al., 2012).

Test [4] has as its system hyaluronan (HA) in WPMY-1 cells. In words: Immunofluorescence for HABP (HA deposition) in WPMY-1 cells. Format: cell-based, human. The following applies: Olaparib 10 μM + PEGPH20 2.5 μg/ml, 96 h, basal and ADT. As to the method:
WPMY-1 cells were seeded in coverslides and cultured in DMEN containing 10% FBS (basal conditions) or 10% charcoal stripped FBS (ADT conditions), then the cells were treated with vehicle (DMSO), Olaparib 10 μM, Olaparib 10 μM+PEGPH20 2.5 μg/ml for 96 hours, refreshing media and stimuli at 48 hours. Cells were fixed in PFA 4% for 20 minutes at room temperature, permeabilize and blocked following abcam's immunofluorescence protocol. Then, cells were incubated overnight with Hyaluronic acid binding protein (HABP) at 4° C. Cells were incubated with Alexa conjugated streptavidin and mounted in slides with mowiol. Pictures were taken by Zeiss LSM 710 NLO Confocal Microscope.

In test [5] the test system is metastatic pancreas cancer. The following applies: cited from earlier work.
The subject of test [6] is PC3 cells. In words: Trans-well migration and invasion of PC3 cells co-cultured with pre-treated WPMY-1 cells. Format: cell-based, human. Particulars: Olaparib 10 μM + PEGPH20 2.5 μg/ml, basal and ADT. As to the method: For co-culture migration and invasion assays, 8×10^4 WPMY-1 cells were plated onto the lower chamber of a 24 well plate in DMEN containing 10% FBS (basal conditions) or 10% charcoal stripped FBS (ADT conditions) and vehicle (DMSO) or Olaparib 10 μM or Olaparib 10 μM+PEGPH20 2.5 μg/ml for 48 hours. 5×10^4 PC3 were seeded in a transwell chamber (Corning Biocoat control inserts) or in a transwell invasion chamber (Corning BioCoat Matrigel Invasion Chambers), both with 8 μm membrane. PC3 were allowed to migrate or invade for 20 hours at 37° C., 5% CO2. Cells were fixed in cold methanol and stained with crystal violet.

In another test the test system is PC3 + WPMY-1 tumors. In words: Subcutaneous xenograft co-implantation of PC3 and WPMY-1 cells in NSG mice. It counts as in vivo, mouse. The following applies: Olaparib 40 mg/Kg + PEGPH20 0.0375 mg/Kg, twice a week, 2 weeks. The protocol:
For mouse xenografts using PC3 PCa cells and sgC or sgAP-1 WPMY-1 stromal cells. 7 weeks old NSG mice were surgical castrated and let androgen levels drop for 10 days. Cells were trypsinized washed two times in PBS and resuspend in DMEN. 1×10^6 PC3 and 1×10^6 sgC or sgAP1-A WPMY-1 for each mouse were resuspended in 100 μl DMEM: Matrigel (1:1) and injected subcutaneously into both flanks of immunocompromised NSG mice (PC3+sgC WPMY-1 n=4; PC3+sgAP-1 WPMY-1 n=4). Tumors were allowed to grow for 1 month. Mice were euthanized and tumors were collected and analyzed histologically. For Olaparib treatment in mouse xenografts. PC3 PCa cells and WPMY-1 stromal cells were trypsinized washed two times in PBS and resuspend in DMEN. 1×10^6 PC3 and 1×10^6 WPMY-1 for each mouse were resuspended in 100 μl DMEM: Matrigel (1:1) and injected subcutaneously into both flanks of immunocompromised NSG mice. Tumors were allowed to grow for 14 days, and mouse were randomly divided to receive vehicle, n=10, Olaparib (40 mg/kg, 2 days each week, i.p.), n=10 or Olaparib (40 mg/kg, 2 days each week, i.p.)+_PEGPH20 (0.0375 mg/Kg, 2 days each week, retroorbital injection) n=10. Tumors were measured twice a week. Mice were euthanized 14 days after the initiation of the treatment and tumors were collected and analyzed histologically. For Olaparib treatment in mice, 13 weeks-old male TRAMP^+, n=18, were randomly distributed to receive vehicle, n=9, or Olaparib (40 mg/kg/, 5 days each week, i.p.), n=9. Mice were euthanized 1 month after the initiation of the treatment. Prostate and other organs were collected and analyzed histologically.
Tissues from indicated mice were isolated, fixed in zinc buffered formalin overnight at 4° C., dehydrated, and embedded in paraffin. Sections (5 μm) were stained with hematoxylin and eosin (H&E). For immunohistochemistry, sections were deparaffinized, rehydrated, and then treated for antigen retrieval. […] Stained sections were analyzed with a Zeiss light microscope supplemented with Zen 3.3 Bule edition software.

On to `CC(O)C(=O)O` (stereo not shown) [lactate], for which the chromatin accessibility result in the test with WPMY-1 cells [1] is on record as “widespread decrease in chromatin accessibility”. In the test with WPMY-1 cells [2], the “NAD+ levels” value is reported as “lower than in untreated cells”. Besides, the “AP-1-driven luciferase reporter activity” value in the test with AP-1 is reported as “repressed an AP-1-driven luciferase reporter”. For the same molecule, the “poly(ADP-ribosyl)ation of c-JUN and c-FOS” value in the test on PARP-1 (lactate 48 h, immunoprecipitation) was “impaired the poly(ADP-ribosyl) ation of c-JUN and c-FOS”. Besides, the “total poly(ADP-ribosyl)ation levels” value with PARP-1 (lactate-treated WPMY-1 cells) is “reduced total poly(ADP-ribosyl) ation levels”.

B1: PEGPH20: PEGylated Recombinant Human Hyaluronidase, clinical-grade recombinant hyaluronidase (provided by Halozyme Therapeutics) (protein, UniProt P38567 36-490, looked up)
Hyaluronidase PH-20: LNFRAPPVIPNVPFLWAWNAPSEFCLGKFDEPLDMSLFSFIGSPRINATGQGVTIFYVDRLGYYPYIDSITGVTVNGGIPQKISLQDHLDKAKKDITFYMPVDNLGMAVIDWEEWRPTWARNWKPKDVYKNRSIELVQQQNVQLSLTEATEKAKQEFEKAGKDFLVETIKLGKLLRPNHLWGYYLFPDCYNHHYKKPGYNGSCFNVEIKRNDDLSWLWNESTALYPSIYLNTQQSPVAATLYVRNRVREAIRVSKIPDAKSPLPVFAYTRIVFTDQVLKFLSQDELVYTFGETVALGASGIVIWGTLSIMRSMKSCLLLDNYMETILNPYIINVTLAAKMCSQVLCQEQGVCIRKNWNSSDYLHLNPDNFAIQLEKGGKFTVRGKPTLEDLEQFSEKFYCSCYSTLSCKEKADVKDTDAVDVCIADGVCIDAFLKPPMETEEPQIFYNASPSTLS
modifications: PEGylated
In the case of B1, the “Olaparib-induced proliferation (EdU)” value with PC3 cells [3] is “blocked Olaparib-induced proliferation in stromal cells”. In addition, the “HA deposition in response to Olaparib” value in test [4] is recorded as “efficiently degraded HA deposition”. Besides, the “primary endpoint of phase 3 trial” value in test [5] was “failed to meet the primary endpoint”. In the test on PC3 cells [6], the “Olaparib-enhanced migration of PC3 cells” value is “completely blocked the enhanced migration of PC3 cells”. For the same molecule, the “anti-tumor activity of the combination (tumor volume)” value in the test with PC3 + WPMY-1 tumors was “enhanced Olaparib anti-tumor activity”.
